Experimental data reported in ChEMBL document CHEMBL5131445, “Optimization of a novel piperazinone series as potent selective peripheral covalent BTK inhibitors” (Bioorg Med Chem Lett, 2022).

What was measured:
[1] = target: Tyrosine-protein kinase Blk (Homo sapiens, UniProt P51451); assay: Binding affinity to BLK (unknown origin) assessed as dissociation constant by KINOMEscan analysis
[2] = target: Receptor tyrosine-protein kinase erbB-2 (Homo sapiens, UniProt P04626); assay: Binding affinity to ERBB2 (unknown origin) assessed as dissociation constant by KINOMEscan analysis
[3] = target: Epidermal growth factor receptor (Homo sapiens, UniProt P00533); assay: Binding affinity to EGFR (unknown origin) assessed as dissociation constant by KINOMEscan analysis
[4] = target: T1, Tyrosine-protein kinase ITK/TSK (Homo sapiens, UniProt Q08881); assay: Binding affinity to ITK (unknown origin) assessed as dissociation constant by KINOMEscan analysis
T1 sequence (Q08881 whole entry): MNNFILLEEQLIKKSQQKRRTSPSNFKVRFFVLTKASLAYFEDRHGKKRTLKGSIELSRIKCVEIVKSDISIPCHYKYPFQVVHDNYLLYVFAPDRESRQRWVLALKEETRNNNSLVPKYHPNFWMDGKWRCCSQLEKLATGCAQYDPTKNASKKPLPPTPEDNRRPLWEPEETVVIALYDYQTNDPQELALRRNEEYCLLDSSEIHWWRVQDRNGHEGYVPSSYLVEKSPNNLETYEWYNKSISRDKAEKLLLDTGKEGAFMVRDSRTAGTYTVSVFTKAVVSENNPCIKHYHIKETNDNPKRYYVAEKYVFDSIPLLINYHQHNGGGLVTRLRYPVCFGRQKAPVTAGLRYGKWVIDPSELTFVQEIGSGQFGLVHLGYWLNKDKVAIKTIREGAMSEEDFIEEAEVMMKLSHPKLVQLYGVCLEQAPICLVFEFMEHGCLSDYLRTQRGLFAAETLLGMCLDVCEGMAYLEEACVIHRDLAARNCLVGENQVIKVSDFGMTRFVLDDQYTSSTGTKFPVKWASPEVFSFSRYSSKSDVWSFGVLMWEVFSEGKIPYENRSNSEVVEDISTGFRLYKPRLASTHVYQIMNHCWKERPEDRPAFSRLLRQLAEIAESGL

[5] = target: Receptor tyrosine-protein kinase erbB-4 (Homo sapiens, UniProt Q15303); assay: Binding affinity to ERBB4 (unknown origin) assessed as dissociation constant by KINOMEscan analysis
[6] = target: T2, Tyrosine-protein kinase JAK3 (Homo sapiens, UniProt P52333); assay: Binding affinity to JAK3 (unknown origin) assessed as dissociation constant by KINOMEscan analysis
T2 sequence (P52333 whole entry): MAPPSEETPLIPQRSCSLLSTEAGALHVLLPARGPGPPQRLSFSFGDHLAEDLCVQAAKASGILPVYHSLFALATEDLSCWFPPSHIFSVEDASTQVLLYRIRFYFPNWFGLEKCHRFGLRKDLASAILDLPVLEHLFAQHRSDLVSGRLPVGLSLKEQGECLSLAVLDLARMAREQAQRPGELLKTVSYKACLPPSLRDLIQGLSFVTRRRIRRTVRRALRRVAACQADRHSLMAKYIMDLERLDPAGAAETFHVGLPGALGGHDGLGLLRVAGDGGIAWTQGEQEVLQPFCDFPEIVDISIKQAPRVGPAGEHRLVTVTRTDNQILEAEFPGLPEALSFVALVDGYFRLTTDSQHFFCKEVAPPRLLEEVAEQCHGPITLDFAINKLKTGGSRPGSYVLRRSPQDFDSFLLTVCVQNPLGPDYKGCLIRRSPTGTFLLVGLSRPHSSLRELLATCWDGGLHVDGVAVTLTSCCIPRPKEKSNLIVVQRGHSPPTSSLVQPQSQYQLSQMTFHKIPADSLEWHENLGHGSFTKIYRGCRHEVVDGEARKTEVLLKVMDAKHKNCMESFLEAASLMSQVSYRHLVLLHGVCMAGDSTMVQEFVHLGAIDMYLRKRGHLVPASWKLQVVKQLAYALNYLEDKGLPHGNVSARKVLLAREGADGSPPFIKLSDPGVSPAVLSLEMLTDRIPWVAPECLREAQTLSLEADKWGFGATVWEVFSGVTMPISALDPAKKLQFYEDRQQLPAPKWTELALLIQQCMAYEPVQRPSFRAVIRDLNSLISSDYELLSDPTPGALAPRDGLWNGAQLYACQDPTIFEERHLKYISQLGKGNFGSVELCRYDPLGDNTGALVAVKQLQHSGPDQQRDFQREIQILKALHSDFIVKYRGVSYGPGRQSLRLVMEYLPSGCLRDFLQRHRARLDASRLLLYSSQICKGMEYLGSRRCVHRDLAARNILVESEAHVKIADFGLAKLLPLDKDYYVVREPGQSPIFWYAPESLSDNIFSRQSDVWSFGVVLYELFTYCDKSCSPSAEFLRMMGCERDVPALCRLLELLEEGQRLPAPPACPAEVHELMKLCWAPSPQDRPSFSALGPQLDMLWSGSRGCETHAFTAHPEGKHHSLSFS

[7] = target: T3, Tyrosine-protein kinase Tec (Homo sapiens, UniProt P42680); assay: Binding affinity to TEC (unknown origin) assessed as dissociation constant by KINOMEscan analysis
T3 sequence (P42680 whole entry): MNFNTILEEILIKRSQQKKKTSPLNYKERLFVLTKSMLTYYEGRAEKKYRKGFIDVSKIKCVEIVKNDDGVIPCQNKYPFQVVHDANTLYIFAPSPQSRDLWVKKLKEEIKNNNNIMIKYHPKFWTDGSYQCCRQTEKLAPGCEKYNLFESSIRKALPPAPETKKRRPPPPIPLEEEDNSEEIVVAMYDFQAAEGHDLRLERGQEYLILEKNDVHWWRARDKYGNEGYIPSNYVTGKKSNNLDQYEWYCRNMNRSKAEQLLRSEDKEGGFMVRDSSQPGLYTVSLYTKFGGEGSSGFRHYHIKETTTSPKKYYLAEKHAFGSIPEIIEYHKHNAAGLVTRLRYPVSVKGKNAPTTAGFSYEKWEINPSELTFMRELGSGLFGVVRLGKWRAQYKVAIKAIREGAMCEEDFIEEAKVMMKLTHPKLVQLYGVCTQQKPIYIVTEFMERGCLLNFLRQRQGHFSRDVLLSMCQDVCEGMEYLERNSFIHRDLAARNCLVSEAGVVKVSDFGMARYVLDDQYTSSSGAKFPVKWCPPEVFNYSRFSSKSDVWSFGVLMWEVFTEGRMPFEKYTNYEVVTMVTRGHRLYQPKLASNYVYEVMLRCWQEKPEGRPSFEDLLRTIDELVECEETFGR

[8] = target: T4, Tyrosine-protein kinase TXK (Homo sapiens, UniProt P42681); assay: Binding affinity to TXK (unknown origin) assessed as dissociation constant by KINOMEscan analysis
T4 sequence (P42681 whole entry): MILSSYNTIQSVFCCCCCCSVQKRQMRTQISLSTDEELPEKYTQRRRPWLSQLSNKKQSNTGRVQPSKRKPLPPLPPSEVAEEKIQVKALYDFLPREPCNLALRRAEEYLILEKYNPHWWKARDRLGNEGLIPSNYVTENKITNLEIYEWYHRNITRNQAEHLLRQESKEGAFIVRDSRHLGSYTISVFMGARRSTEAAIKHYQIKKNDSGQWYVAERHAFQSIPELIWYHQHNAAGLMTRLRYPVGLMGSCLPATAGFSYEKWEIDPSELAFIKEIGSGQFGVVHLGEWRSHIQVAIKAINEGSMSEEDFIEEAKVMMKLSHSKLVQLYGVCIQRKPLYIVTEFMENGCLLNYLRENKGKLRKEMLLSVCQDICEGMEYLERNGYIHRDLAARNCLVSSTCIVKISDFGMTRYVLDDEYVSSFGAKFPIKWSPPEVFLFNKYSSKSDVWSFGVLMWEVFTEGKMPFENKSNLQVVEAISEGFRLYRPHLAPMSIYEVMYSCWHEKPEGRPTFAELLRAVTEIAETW

Sequence of Receptor tyrosine-protein kinase erbB-2 (P04626 whole entry): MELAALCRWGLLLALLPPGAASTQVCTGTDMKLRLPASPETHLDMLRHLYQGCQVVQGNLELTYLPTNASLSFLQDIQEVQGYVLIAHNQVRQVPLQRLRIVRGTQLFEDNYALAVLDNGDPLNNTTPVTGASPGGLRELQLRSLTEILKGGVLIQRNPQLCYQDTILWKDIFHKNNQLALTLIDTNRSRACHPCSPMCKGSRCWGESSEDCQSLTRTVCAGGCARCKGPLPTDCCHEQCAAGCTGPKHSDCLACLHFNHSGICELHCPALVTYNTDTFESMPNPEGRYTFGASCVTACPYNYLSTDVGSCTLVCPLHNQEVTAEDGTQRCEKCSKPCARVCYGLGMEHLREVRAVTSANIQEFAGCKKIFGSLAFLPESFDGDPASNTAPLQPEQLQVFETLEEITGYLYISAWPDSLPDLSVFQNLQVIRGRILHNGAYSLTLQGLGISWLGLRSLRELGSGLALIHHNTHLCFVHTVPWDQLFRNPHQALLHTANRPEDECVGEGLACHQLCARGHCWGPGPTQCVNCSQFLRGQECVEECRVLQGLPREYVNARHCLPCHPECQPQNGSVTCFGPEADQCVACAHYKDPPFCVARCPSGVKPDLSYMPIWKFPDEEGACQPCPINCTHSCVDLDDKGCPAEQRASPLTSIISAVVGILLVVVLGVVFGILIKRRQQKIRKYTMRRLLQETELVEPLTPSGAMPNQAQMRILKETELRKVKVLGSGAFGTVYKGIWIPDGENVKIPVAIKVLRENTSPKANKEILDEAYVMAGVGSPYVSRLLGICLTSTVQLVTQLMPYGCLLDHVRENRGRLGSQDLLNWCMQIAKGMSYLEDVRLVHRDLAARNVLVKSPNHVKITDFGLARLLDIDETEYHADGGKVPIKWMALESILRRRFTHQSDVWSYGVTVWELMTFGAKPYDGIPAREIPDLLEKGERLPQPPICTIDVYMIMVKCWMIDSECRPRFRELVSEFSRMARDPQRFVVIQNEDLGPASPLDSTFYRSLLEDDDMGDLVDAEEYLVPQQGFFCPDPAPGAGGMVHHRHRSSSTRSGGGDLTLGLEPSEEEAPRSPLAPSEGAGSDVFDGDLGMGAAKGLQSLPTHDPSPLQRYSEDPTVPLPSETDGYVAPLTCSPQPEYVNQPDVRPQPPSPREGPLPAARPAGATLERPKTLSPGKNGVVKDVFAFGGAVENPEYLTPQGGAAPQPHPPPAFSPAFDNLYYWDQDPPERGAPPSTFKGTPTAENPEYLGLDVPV
Sequence of Receptor tyrosine-protein kinase erbB-4 (Q15303 whole entry): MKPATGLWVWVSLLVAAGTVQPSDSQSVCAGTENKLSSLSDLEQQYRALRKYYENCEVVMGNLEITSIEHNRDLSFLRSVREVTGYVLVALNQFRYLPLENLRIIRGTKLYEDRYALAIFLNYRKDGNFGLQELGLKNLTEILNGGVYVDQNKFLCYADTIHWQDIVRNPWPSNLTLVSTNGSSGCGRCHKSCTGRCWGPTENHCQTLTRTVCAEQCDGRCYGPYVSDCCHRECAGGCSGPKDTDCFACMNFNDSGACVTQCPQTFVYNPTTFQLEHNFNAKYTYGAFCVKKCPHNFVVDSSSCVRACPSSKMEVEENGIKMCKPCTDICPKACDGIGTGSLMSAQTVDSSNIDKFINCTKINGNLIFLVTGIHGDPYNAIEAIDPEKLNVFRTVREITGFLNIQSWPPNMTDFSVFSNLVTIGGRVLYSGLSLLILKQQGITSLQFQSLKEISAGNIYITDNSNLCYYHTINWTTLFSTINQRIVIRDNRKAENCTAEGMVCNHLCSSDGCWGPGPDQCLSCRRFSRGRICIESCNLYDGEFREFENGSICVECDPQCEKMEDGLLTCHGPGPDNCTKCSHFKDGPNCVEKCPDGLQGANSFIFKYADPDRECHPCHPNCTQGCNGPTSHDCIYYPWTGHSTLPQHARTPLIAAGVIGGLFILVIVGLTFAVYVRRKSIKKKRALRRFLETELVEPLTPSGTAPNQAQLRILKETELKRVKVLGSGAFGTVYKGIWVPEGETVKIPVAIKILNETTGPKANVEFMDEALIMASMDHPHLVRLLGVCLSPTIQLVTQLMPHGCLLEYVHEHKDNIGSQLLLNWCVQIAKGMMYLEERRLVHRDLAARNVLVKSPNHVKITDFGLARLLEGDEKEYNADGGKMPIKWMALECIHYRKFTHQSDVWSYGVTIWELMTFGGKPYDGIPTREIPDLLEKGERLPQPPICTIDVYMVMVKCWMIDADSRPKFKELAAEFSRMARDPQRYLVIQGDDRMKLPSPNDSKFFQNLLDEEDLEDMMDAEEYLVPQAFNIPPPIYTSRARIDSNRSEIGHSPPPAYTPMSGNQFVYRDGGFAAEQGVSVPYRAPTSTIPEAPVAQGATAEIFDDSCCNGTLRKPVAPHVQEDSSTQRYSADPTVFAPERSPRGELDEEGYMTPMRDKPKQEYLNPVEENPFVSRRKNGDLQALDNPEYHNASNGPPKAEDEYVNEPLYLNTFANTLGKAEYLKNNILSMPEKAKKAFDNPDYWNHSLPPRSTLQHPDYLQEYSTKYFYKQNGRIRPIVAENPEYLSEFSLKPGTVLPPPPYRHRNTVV
Sequence of Tyrosine-protein kinase Blk (P51451 whole entry): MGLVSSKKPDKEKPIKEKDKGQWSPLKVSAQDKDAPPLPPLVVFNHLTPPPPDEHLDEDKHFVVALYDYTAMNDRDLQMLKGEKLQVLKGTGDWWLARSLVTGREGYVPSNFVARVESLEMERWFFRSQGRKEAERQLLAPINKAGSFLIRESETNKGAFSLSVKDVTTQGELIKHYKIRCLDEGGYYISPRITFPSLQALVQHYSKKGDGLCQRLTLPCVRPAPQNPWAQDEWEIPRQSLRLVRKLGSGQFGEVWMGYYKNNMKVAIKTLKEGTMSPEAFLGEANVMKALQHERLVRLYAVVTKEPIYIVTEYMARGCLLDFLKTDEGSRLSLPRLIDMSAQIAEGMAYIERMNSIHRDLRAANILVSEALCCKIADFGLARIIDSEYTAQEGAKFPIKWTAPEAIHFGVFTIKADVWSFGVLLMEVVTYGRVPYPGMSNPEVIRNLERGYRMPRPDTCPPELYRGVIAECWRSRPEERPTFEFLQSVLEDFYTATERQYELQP
Sequence of Epidermal growth factor receptor (P00533 whole entry): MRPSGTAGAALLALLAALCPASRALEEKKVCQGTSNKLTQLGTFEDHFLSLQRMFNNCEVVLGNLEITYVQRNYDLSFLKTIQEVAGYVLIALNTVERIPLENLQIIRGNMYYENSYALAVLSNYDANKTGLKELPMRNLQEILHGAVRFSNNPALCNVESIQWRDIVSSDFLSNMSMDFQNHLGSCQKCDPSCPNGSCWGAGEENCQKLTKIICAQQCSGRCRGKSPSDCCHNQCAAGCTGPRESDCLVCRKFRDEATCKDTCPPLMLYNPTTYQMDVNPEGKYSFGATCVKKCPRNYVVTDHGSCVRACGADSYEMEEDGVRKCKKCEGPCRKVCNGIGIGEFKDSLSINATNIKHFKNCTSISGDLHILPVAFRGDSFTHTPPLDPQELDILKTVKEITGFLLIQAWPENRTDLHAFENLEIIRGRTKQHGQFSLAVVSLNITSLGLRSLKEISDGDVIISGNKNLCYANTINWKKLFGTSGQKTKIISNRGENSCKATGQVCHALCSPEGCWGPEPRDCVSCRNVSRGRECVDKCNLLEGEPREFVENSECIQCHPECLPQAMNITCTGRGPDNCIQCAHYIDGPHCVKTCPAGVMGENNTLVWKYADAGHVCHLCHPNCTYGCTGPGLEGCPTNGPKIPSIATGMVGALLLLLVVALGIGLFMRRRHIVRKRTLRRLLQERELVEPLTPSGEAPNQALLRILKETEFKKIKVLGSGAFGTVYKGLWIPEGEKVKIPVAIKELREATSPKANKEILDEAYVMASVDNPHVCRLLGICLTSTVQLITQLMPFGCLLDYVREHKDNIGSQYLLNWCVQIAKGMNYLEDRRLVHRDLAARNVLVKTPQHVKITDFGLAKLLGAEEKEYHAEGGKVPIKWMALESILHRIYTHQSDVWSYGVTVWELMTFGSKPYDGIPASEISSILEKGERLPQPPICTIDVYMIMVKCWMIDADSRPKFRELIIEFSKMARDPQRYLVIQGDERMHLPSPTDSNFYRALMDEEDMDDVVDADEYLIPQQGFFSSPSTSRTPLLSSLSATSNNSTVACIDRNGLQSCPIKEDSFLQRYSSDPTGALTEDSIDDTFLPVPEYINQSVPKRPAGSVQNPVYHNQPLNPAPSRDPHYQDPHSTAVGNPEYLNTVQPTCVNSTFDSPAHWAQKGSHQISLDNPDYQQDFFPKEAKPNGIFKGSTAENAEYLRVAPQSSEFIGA

Question: Which Kd [1] does the source give for `C[C@@H]1CN(C2COC2)CCN1c1ccc(Nc2cc(-c3ccnc(N4CCn5c(cc6c5CC(C)(C)C6)C4=O)c3CO)cn(C)c2=O)nc1` here?
Answer: 4.1 µM

Question: And the Kd [2]?
Answer: 30 µM

Question: And the Kd [3]?
Answer: 30 µM

Question: What about the Kd [4] of the same compound?
Answer: 190 nM

Question: What about the Kd [5] of the same compound?
Answer: 30 µM

Question: And the Kd [6]?
Answer: 23 µM

Question: And the Kd [7]?
Answer: 210 nM

Question: What about the Kd [8] of the same compound?
Answer: 2000 nM
